Source: US6444685B1, “N-(4-sulfonylaryl)Cyclylamine 2-hydroxyethylamines as beta-3 adrenergic receptor agonists” (Wyeth, priority 2000, dated 2002)

What was measured:
[1] = target: T1, human β3 adrenergic receptor (Homo sapiens, UniProt P13945); test: cAMP accumulation (SPA) in CHO cells transfected with human β3 adrenergic receptor; assay type: cell-based; conditions: for EC50: CHO cells expressing human β3-AR, cAMP, 30 min incubation, 10^−9 M to 10^−5 M, read-out: beta-3 EC50; for beta-3 (IA) maximal response relative to isoproterenol: IA = % activity compound / % activity isoproterenol at 10^−5 M, CHO human β3 cells
T1 construct: Full length β3 AR clones (402 amino acids) containing the last 6 amino acids of hβ3— AR are prepared; expressed in transfected cells; host or cells: CHO cells
How it was run: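 CHO cells expressing human β3-AR (70–110 fmol/mg protein) treated with compound at 10^−9 to 10^−5 M in DMEM with 250 μM IBMX and 1 mM ascorbic acid, 30 min, 37 °C. cAMP measured by SPA; EC50 derived, and intrinsic activity expressed relative to the maximal response of 10^−5 M isoproterenol.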

[2] = target: T2, human β1-adrenergic receptor (Homo sapiens, UniProt P08588); test: cAMP accumulation (SPA) in CHO cells transfected with human β1 adrenergic receptor; assay type: cell-based; conditions: for EC50: CHO cells transfected with human β1-AR, cAMP, 15 min incubation, 10^−8 to 10^−4 M, read-out: beta-1 EC50; for beta-1 (IA) maximal response relative to isoproterenol: IA = % activity compound / % activity isoproterenol at 10^−5 M, CHO human β1 cells
T2 construct: expressed in transfected cells; host or cells: CHO cells
How it was run: (§1)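 CHO cell clones expressing 70–110 fmol/mg protein of receptor were pre-incubated 30 min at 37 °C, then treated 15 min at 37 °C with compound (10^−8 to 10^−4 M) in DMEM with 250 μM IBMX and 1 mM ascorbic acid. cAMP was read by SPA after acid stop. EC50 and IA were expressed relative to maximal 10^−5 M isoproterenol response.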

[3] = target: T3, human β2-adrenergic receptor (Homo sapiens, UniProt P07550); test: cAMP accumulation (SPA) in CHO cells transfected with human β2 adrenergic receptor; assay type: cell-based; conditions: for EC50: CHO cells transfected with human β2-AR, cAMP, 15 min incubation, 10^−8 to 10^−4 M, read-out: beta-2 EC50; for beta-2 (IA) maximal response relative to isoproterenol: IA = % activity compound / % activity isoproterenol at 10^−5 M, CHO human β2 cells
T3 construct: expressed in transfected cells; host or cells: CHO cells
How it was run: as §1

T2 sequence (P08588 whole entry): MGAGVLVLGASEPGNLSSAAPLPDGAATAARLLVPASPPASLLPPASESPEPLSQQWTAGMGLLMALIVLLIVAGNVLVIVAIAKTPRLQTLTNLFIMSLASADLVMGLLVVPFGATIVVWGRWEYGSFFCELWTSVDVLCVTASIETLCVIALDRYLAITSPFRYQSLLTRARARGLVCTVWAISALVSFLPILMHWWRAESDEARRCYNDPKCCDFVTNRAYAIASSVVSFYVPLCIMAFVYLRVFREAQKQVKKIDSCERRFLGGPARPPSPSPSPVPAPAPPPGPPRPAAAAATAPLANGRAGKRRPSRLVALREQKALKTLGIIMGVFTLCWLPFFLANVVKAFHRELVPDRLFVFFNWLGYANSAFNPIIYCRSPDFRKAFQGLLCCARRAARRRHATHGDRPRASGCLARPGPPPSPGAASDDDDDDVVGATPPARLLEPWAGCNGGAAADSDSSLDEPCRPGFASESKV
T1 sequence (P13945 whole entry): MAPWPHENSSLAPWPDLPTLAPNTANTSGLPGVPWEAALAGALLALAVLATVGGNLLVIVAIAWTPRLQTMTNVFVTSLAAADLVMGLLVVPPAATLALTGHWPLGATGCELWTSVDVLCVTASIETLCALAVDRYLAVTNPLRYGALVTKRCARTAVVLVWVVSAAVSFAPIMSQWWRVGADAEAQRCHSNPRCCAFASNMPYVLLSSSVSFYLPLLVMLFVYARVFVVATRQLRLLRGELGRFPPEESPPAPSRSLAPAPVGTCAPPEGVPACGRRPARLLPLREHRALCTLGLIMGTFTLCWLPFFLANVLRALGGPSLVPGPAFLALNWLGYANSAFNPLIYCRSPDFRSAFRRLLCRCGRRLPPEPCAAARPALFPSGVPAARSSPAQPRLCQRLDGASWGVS
T3 sequence (P07550 whole entry): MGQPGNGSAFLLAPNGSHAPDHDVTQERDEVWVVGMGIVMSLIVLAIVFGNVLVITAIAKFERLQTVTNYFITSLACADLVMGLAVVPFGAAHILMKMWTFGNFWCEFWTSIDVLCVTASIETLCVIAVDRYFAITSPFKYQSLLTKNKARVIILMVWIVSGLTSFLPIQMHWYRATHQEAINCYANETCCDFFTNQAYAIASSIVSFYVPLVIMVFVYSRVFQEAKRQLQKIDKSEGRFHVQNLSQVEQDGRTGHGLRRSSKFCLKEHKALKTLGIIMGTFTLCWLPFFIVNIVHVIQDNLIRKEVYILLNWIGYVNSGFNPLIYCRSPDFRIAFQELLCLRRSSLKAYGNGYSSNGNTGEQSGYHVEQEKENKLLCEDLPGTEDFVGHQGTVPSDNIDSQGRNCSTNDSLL

SMILES	EC50 [1] [µM]	beta-3 (IA) maximal response relative to isoproterenol [1]	EC50 [2] [µM]	beta-1 (IA) maximal response relative to isoproterenol [2]	melting point [°C]	EC50 [3] [µM]	beta-2 (IA) maximal response relative to isoproterenol [3]
CC(C)(C)OC(=O)CN(CC(=O)OC(C)(C)C)S(=O)(=O)c1ccc(N2CCC(NC[C@H](O)c3ccc(O)c(NS(C)(=O)=O)c3)CC2)cc1 [Example 54, tert-Butyl 2-{[2-(tert-butoxy)-2-oxoethyl][(4-{4-[((2R)-2-hydroxy-2-{4-hydroxy-3-[(methylsulfonyl)amino]phenyl}ethyl)amino]-1-piperidinyl}-phenyl)sulfonyl]amino}acetate]	0.014	(1.2)	2.3	(0.33)	164 to 166	12	(0.42)
CCOC(=O)CNS(=O)(=O)c1ccc(N2CCC(NC[C@H](O)c3ccc(O)c(NS(C)(=O)=O)c3)CC2)cc1 [Example 56, Ethyl 2-{[(4-{4-[((2R)-2-Hydroxy-2-{4-hydroxy-3-[(methylsulfonyl)amino]-phenyl}ethyl)amino]-1-piperidinyl}phenyl)sulfonyl]amino}acetate]	0.014	(1)	9.5	(0.31)	105 to 107	1.6	(0.27)
CCOC(=O)NC(=O)CNS(=O)(=O)c1ccc(N2CCC(NC[C@H](O)c3ccc(O)c(NS(C)(=O)=O)c3)CC2)cc1 [Example 58, Ethyl 2-{[(4-{4-[((2R)-2-Hydroxy-2-{4-hydroxy-3-((methylsulfonyl)amino]-phenyl}ethyl)amino]piperidin-1-yl}phenyl)sulfonyl]amino}acetylcarbamate]	0.011	(1)	3.6	(0.65)	98 to 105	3.9	(0.31)
COC(=O)N(CC(=O)OC(C)(C)C)S(=O)(=O)c1ccc(N2CCC(NC[C@H](O)c3ccc(O)c(NS(C)(=O)=O)c3)CC2)cc1 [Example 59, tert-Butyl [[(4-{4-[((2R)-2-Hydroxy-2-{4-hydroxy-3-[(methylsulfonyl)amino]-phenyl}ethyl)amino]piperidin-1-yl}phenyl)sulfonyl](methoxycarbonyl)-amino]acetate]	0.015	(0.98)	7.8	(0.52)	110 to 115	12	(0.2)
CCOC(=O)CN(Cc1cc(F)ccc1F)S(=O)(=O)c1ccc(N2CCC(NC[C@H](O)c3ccc(O)c(NS(C)(=O)=O)c3)CC2)cc1 [Example 61, Ethyl {(2,5-Difluorobenzyl)[(4-{4-[((2R)-2-hydroxy-2-{4-hydroxy-3-[(methyl-sulfonyl)amino]phenyl}ethyl)amino]piperidin-1-yl}phenyl)sulfonyl]amino}acetate]	0.001	(1.1)	1.9	(0.3)	85 to 90	–	(0.2)
CCCCNC(=O)NS(=O)(=O)c1ccc(N2CCC(NC[C@H](O)c3ccc(O)c(NS(C)(=O)=O)c3)CC2)cc1 [Example 62, 1-[4-({[(Butylamino)carbonyl]amino}sulfonyl)phenyl]-4-[((2)-2-hydroxy-2-{4-hydroxy-3-[(methylsulfonyl)amino]phenyl}ethyl)amino]piperidine]	0.009	(1)	5	(0.32)	100 to 102	5	(0.31)
CCOC(=O)CN1CCN(S(=O)(=O)c2ccc(N3CCC(NC[C@H](O)c4ccc(O)c(NS(C)(=O)=O)c4)CC3)cc2)CC1 [Example 64, Ethyl {4-((4-{4-[((2R)-2-Hydroxy-2-{4-hydroxy-3-[(methylsulfonyl)amino]-phenyl}ethyl)amino]piperidin-1-yl}phenyl)sulfonyl]piperazin-1-yl}acetate]	0.004	(1.1)	–	(0.11)	91 to 92	5.9	(0.22)
CN1CCN(S(=O)(=O)c2ccc(N3CCC(NC[C@H](O)c4ccc(O)c(NS(C)(=O)=O)c4)CC3)cc2)CC1 [Example 66, N-(2-Hydroxy-5-{(1R)-1-hydroxy-2-[(1-{4-[(4-methylpiperazin-1-yl)sulfonyl]phenyl}piperidin-4-yl)amino]ethyl}phenyl)methanesulfonamide]	0.025	(0.95)	2.7	(0.44)	89 to 91	–	(0.17)
